Measurements taken from ChEMBL document CHEMBL4513101, “Naegleria gruberi Pathogen Box compounds screening” (2021).
The source made the active and inactive calls. Rule as the data show it: active = inhibition of 80% or more and inactive = less.

Tested on: Naegleria gruberi
Experiment: microbe, parasite or virus in culture
Type: functional
Settings: NEG-M, CONC 10 uM
Description: Growth inhibiting activity of Naegleria gruberi in vitro

Row | Structure (SMILES) | inhibition at 10 µM
1 | FC(F)(F)c1cccc(-c2nc3c(NCc4ccncc4)nccc3[nH]2)c1 | 25.1% (not active)
2 | CCOC(=O)c1noc(N)c1-c1ccccc1 | 0% (not active)
3 | CC1COC(Cn2cncn2)(c2ccc(Oc3ccc(Cl)cc3)cc2Cl)O1 (configuration not stated) [DIFENOCONAZOLE] | 73.3% (not active)
4 | CN(C)CCNC(=O)N1CCCN(c2ncnc3cc(-c4ccccc4)sc23)CC1 | 29.4% (not active)
5 | CC(=O)N1CCN(c2ccc(Oc3ccc(Cl)cc3O)cc2)CC1 | 0% (not active)
6 | CN1CCC(NCc2cccc(-c3ccc(S(=O)(=O)NCc4ccccc4)cc3)c2)CC1 | 14.4% (not active)
7 | CO/C=C(/C(=O)OC)c1ccccc1Oc1cc(Oc2ccccc2C#N)ncn1 [AZOXYSTROBIN] | 33.7% (not active)
8 | Cc1nc(-c2cccc(NCc3ccccc3)c2)[nH]c1C | 8.1% (not active)
9 | COc1ccc(-c2cncc3ccc(C(=O)NCCCn4ccnc4)nc23)cc1 | 5.8% (not active)
10 | CN1CCCC1CCO[C@](C)(c1ccccc1)c1ccc(Cl)cc1 (some centres not stated) | 64.4% (not active)
11 | Cc1cc(NC(=O)c2ccc(Oc3ccc(Cl)cc3O)o2)no1 | 0% (not active)
12 | N=C(N)c1ccc(OCCCCCOc2ccc(C(=N)N)cc2)cc1 [PENTAMIDINE] | 43% (not active)
13 | COc1ccc2nc(C)cc(OCC(=O)NCc3ccccc3)c2c1 | 41.1% (not active)
14 | Brc1c(-c2ccc3c(c2)OCO3)nc2ncccn12 | 39.1% (not active)
15 | CCOc1ccc(OCC(=O)Nc2cc(C)cc(C)c2)cc1 | 0% (not active)
16 | Cc1ccc(S(=O)(=O)N2CCN(C(=O)c3cc(-c4ccccc4)n[nH]3)CC2)cc1 | 22.3% (not active)
17 | Nc1ccc(C(=O)Nc2ccc(-c3nc4ccccc4o3)cc2)cc1 | 6.1% (not active)
18 | CCCCOC(=O)Nc1cc2nc(C3CCCCC3)[nH]c2cc1N1CCCC1 | 64.3% (not active)
19 | OCCc1ccc(Nc2nccc(-c3nnc4ccccn34)n2)cc1 | 18.7% (not active)
20 | CC(C)(C)n1nc(Cc2cccc3ccccc23)c2c(N)ncnc21 | 13.8% (not active)
21 | Cc1ccc2cc(C3NC(=O)c4ccccc4N3)c(Cl)nc2c1 (configuration not stated) | 46.1% (not active)
22 | CC(C)(C)n1nc(Cc2ccc(F)c(Cl)c2)c2c(N)ncnc21 | 32% (not active)
23 | O=C(CN1CCOCC1)Nc1ccc2ncnc(Nc3ccc(OCc4cccc(F)c4)c(Cl)c3)c2c1 | 17% (not active)

Row | Structure (SMILES) | inhibition at 10 µM
24 | Cc1cc(NCCc2ccccc2)nc(NC(=N)Nc2ccc(Cl)cc2)n1 | 19.6% (not active)
25 | Clc1ccc(CN2CCN(C3=NCCN3)CC2)cc1Cl | 23.3% (not active)
26 | CCOC(=O)c1c(NC(=O)c2c(F)c(F)c(F)c(F)c2F)sc(C(N)=O)c1C | 5.8% (not active)
27 | CC1(C)Cc2c(c(N3CCOCC3)nc3snc(Br)c23)CO1 | 0% (not active)
28 | c1ccc(Oc2ccc(-c3cc(N4CCNCC4)[nH]n3)cc2)cc1 | 0% (not active)
29 | CC(Oc1ccccc1)C(=O)Nc1nc(-c2ccccn2)cs1 (configuration not stated) | 32.3% (not active)
30 | Cc1nn(C)cc1C(C)Nc1nncc(-c2ccc(C(F)(F)F)cc2)n1 (configuration not stated) | 0% (not active)
31 | N#CCN(CCCCN1CCN(c2ccc(F)cc2)CC1)C(=O)OCc1ccccc1 | 21.3% (not active)
32 | COc1cc(C2=NCCN2)ccc1-n1cc(-c2cccc(C3=NCCN3)c2)nn1 | 16.2% (not active)
33 | N#Cc1ccc(-c2cnc(N)c(-c3ccc(C(N)=O)cc3)n2)cc1 | 21.8% (not active)
34 | c1cc(C2=NCCN2)cc(-c2cc(-c3ccc(C4=NCCN4)cc3)no2)c1 | 24.2% (not active)
35 | CC(C)(C)CN1C(=O)C(c2ccccc2)(c2ccccc2)N=C1N | 19.2% (not active)
36 | O=C(c1[nH]nc2c1CCCC2)N1CCN(Cc2ccc3c(c2)OCO3)CC1 | 29.5% (not active)
37 | CC(C)C(Oc1cccc2ccccc12)C(=O)O (configuration not stated) | 1.3% (not active)
38 | CS(=O)(=O)c1ccccc1C(=O)N(Cc1ccccc1)c1ccccc1 | 31.8% (not active)
39 | CNc1nnc(Sc2cnn(-c3ccccc3)c(=O)c2Cl)s1 | 50% (not active)
40 | CC[C@H](CO)NCCN[C@H](CC)CO | 26.7% (not active)
41 | CCC(Sc1nc2ccccc2o1)C(=O)Nc1nccs1 (configuration not stated) | 44.3% (not active)
42 | CC(=O)N1CCc2cc3nc(C)cc(C)c3cc21 | 19.9% (not active)
43 | COc1ccc(CN2CCOc3ccc(C(C)(O)CN(C)C)cc3C2)cc1C (configuration not stated) | 26.3% (not active)
44 | COc1cc(NC(C)CCCN)c2ncccc2c1 (configuration not stated) [PRIMAQUINE] | 10.7% (not active)
45 | O=C1[C@@H](Oc2ccccc2)[C@@H](c2ccc(Cl)cc2)N1CCn1cnc2c(NCc3ccccc3)ncnc21 | 0% (not active)
46 | Nc1ncnc2[nH]nc(Cc3cccc4ccccc34)c12 | 24% (not active)

Row | Structure (SMILES) | inhibition at 10 µM
47 | CCCn1nnc(NC(=O)COc2ccc(C3CCCCC3)cc2)n1 | 33% (not active)
48 | Cc1ccc(NC(=O)c2cc(S(=O)(=O)NC(C)(C)C)ccc2C)nc1 | 34.7% (not active)
49 | Cc1noc(C)c1C(=O)N1CCCC(c2[nH]c3c(C)cccc3c2-c2ccncc2)C1 (configuration not stated) | 27.1% (not active)
50 | Cc1ccc2[nH]c(C3CCCNC3)c(-c3ccncc3)c2c1 (configuration not stated) | 9.5% (not active)
51 | COc1ccc(-c2onc(C(F)(F)F)c2-c2ccc(Cl)cc2)c(O)c1 | 45.5% (not active)
52 | COc1ccc(-c2nc(-c3cccc(NC(=O)Cc4ccc(F)cc4)c3)no2)cc1OC | 35.4% (not active)
53 | Cc1cc2ccccc2n1CC(=O)N1CC(C(=O)N2CCCCC2)Oc2ccccc21 (configuration not stated) | 52.5% (not active)
54 | CNC(=O)c1cc(S(=O)(=O)N2CCN(c3ccccn3)CC2)cs1 | 32.9% (not active)
55 | O=C(Nc1cccnc1)c1c(O)c2cccc3c2n(c1=O)CC3 | 40.3% (not active)
56 | CC(=O)NCC1CN(c2ccc(-c3ccc(CO)cc3)c(F)c2)C(=O)O1 (configuration not stated) | 35.1% (not active)
57 | CC(C)(C)[C@H]1CC[C@H](CC2=C(O)C(=O)c3ccccc3C2=O)CC1 [BUPARVAQUONE] | 92.9% (active)
58 | CC(=O)NCC1CN(c2ccc(-c3ccc(CNCc4cn[nH]n4)cc3)c(F)c2)C(=O)O1 (configuration not stated) | 26.2% (not active)
59 | CS(=O)(=O)Cc1nc2ccccc2oc1=O | 38.8% (not active)
60 | O=C(NCc1cc(Cl)cc(Cl)c1)c1c(C(F)(F)F)nc2ccccn12 | 28.4% (not active)
61 | O=C(C1CCN(c2nnnn2-c2ccccc2)CC1)N1CCc2ccccc2C1 | 25.8% (not active)
62 | CCc1cc(=O)n(C)c(SC(C)C(=O)Nc2ccc(F)cc2)n1 (configuration not stated) | 10.4% (not active)
63 | CCCNC(=O)N1CCC2(CC1)CC(=O)c1cc(C)ccc1O2 | 11.6% (not active)
64 | c1ccc(-c2[nH]c3ccccc3c2C(c2ccccn2)N2CCCC2)cc1 (configuration not stated) | 32.7% (not active)
65 | O=C(c1cc2ccccc2o1)N1CCN(Cc2ccc3c(c2)OCO3)CC1 | 28.6% (not active)
66 | Cc1cc(C)c2cc(C(=O)NC3CCCCCCC3)[nH]c2c1 | 30.2% (not active)
67 | O=C1Nc2ccc(Br)cc2C12NCCc1c2[nH]c2ccccc12 (configuration not stated) | 33.5% (not active)
68 | N#Cc1nc(-c2ccccc2F)oc1NCCc1ccccc1 | 4.7% (not active)
69 | Cc1cc(C2=NOC(c3cc(Cl)c(F)c(Cl)c3)(C(F)(F)F)C2)ccc1C(=O)NCc1ccc2c(c1)C(C)(C)OB2O (configuration not stated) | 47.6% (not active)

Row | Structure (SMILES) | inhibition at 10 µM
70 | Cc1ccc2[nH]c3c(NCCN(C)C)ncnc3c2c1 | 23.7% (not active)
71 | CS(=O)(=O)c1cccc(-c2cnc3[nH]cc(-c4ccc(CCC(=O)O)cc4)c3c2)c1 | 28.7% (not active)
72 | O=C(Nc1nc(-c2ccccn2)cs1)C1CC1c1ccccc1F (configuration not stated) | 46.3% (not active)
73 | O=C(Nc1ccccc1-c1nc2c(C(=O)O)cccc2o1)c1ccccc1 | 39.5% (not active)
74 | COC(=O)C1=C(C)NC(C)=C(C(=O)OC(C)C)C1c1cccc2nonc12 (configuration not stated) [ISRADIPINE] | 48.7% (not active)
75 | COc1cccc(-c2nc3c(N4CCCC4)cccc3n2CC2CCCN2)n1 (configuration not stated) | 51.5% (not active)
76 | Clc1ccc(-n2cc(COc3ccnc4ccccc34)nn2)cc1 | 75.2% (not active)
77 | Cc1ccc(NC(=O)c2nc[nH]c2C(=O)Nc2nc3ccccc3[nH]2)c(C)c1 | 22.8% (not active)
78 | CC(C)(C)c1ccc(N[C@@H]2CCCC[C@H]2NC(=O)c2ccco2)cc1 | 8.8% (not active)
79 | CC1CCCN(C(=O)C(C)Nc2cc(Cl)ccc2N2CCOCC2)C1 (configuration not stated) | 43.8% (not active)
80 | CC1CCCCN1C(=O)NCCc1coc(-c2ccc(F)cc2)n1 (configuration not stated) | 42.6% (not active)
81 | CC(C)n1ncc2c(C(=O)NCC(c3cccs3)N3CCOCC3)cc(-c3ccccc3)nc21 (configuration not stated) | 48.6% (not active)
82 | N#Cc1nc(-c2ccccc2)oc1S(=O)(=O)c1ccc(Cl)cc1 | 9.4% (not active)
83 | Cc1ncc(-c2ccnc(Nc3ccc(S(C)(=O)=O)cc3)n2)n1C(C)C [AZD-5438] | 47.7% (not active)
84 | COc1ccc(-c2cnc3cnc(-c4cccc(OC(C)C)c4)cn23)cc1 | 9.4% (not active)
85 | O=C([C@@H](c1ccc(Cl)cc1)c1cccnc1)N1CCN(c2ccc(C(F)(F)F)cc2)CC1 | 75.6% (not active)
86 | C[C@H](c1ccc2c(c1)CCCC2)N(C)c1ncc2c(N)nc(N)nc2n1 | 29.6% (not active)
87 | Nc1c2c(nc3sc4c(c13)CCCC4)CCCC2 | 48.3% (not active)
88 | O=C(Nc1nc(-c2ccccn2)cs1)c1cncn1-c1ccccc1 | 45.9% (not active)
89 | O=C(NCc1ccco1)N1CCN(Cc2ccc(Cl)s2)CC1 | 39.6% (not active)
90 | COc1cc(C2=NCCN2)cc2cc(-c3ccc(C4=NCCN4)cc3)oc12 | 11.2% (not active)
91 | CC1=NN(c2nc3ccccc3s2)C(=O)C1Cc1cccc2ccccc12 (configuration not stated) | 57.2% (not active)
92 | Cc1nn(Cc2ccccc2)c(Cl)c1C(=O)NC1CCCCCC1 | 36.1% (not active)
